Reference: publication PMC5655360, “Establishment of a novel hepatocyte model that expresses four cytochrome P450 genes stably via mammalian-derived artificial chromosome for pharmacokinetics and toxicity studies” (PLoS ONE, 2017)
Like-named read-outs stand apart in the source and are kept apart here.

Key:
[1] = target: T1, CYP2D6 (Homo sapiens, UniProt P10635); assay: cell-based
Procedure: (§1) Measurement of the activity of all four CYPs was conducted using the P450-Glo™ assay (Promega, Japan), according to the manufacturer’s instructions. Briefly, cells were seeded in a 96-well plate at a density of 1×10^4 cells/well. Twenty-four hours later, test compounds and the luminescent substrate included in the kit were added into the culture media. Following 1 hour of incubation, the detection reagent was added, and the luminescence generated by the metabolic substrate within the culture media was measured using an Infinite F500 plate reader ([…]).
(§2) Curve fitting was performed using the SigmaPlot 13.0 statistical software (Systat Software, IL, USA). […] Data were presented as means ± S.D. Statistical analyses were carried out using unpaired Student’s t test. The level of statistical significance was set at P< 0.05.
(§3) Twenty compounds that are known to inhibit CYPs were used to calculate IC50 values in TC-HepG2 cells, which were then compared to those in primary human hepatocytes.
(§4) Briefly, CYP inhibitors were added to the culture media at the same time as the metabolic substrate to test direct inhibition (DI) or 1 hour prior to the addition of the metabolic substrate to test time-dependent inhibition (TDI).

[2] = target: T2, CYP2C19 (Homo sapiens, UniProt P33261); assay: cell-based
Procedure: as §1, §2, §3, §4

[3] = target: T2, CYP2C19; assay: cell-based; assay type: in vitro ADME; set-up: endogenous in cells; host or cells: primary human hepatocytes; conditions: primary human hepatocytes; mean ± S.D. of triplicate
[4] = target: CYP2C9 (Homo sapiens, UniProt P11712); conditions: TC-HepG2 cells, Fig 5
Procedure: as §1, §2, §3, §4

[5] = target: T3, CYP3A4 (Homo sapiens, UniProt P08684)
Procedure: as §1, §2, §3, §4
Target sequence in this assay (P08684 2-503): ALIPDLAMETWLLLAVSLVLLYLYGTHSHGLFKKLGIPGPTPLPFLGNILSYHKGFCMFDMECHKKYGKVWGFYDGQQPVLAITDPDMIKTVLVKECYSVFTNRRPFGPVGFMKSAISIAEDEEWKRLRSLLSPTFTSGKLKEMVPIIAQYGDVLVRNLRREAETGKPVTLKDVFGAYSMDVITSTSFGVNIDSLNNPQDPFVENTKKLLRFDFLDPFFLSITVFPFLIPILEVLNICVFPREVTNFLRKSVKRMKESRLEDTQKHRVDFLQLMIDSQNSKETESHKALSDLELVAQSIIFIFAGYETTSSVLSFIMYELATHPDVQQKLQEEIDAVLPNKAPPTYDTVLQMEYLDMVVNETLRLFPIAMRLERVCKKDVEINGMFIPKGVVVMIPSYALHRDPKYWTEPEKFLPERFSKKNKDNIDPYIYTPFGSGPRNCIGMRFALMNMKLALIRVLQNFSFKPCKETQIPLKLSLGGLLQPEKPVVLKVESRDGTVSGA

[6] = target: T3, CYP3A4; assay: in vitro
Procedure: as §1
Fig 6G–6I show the plots to determine the rate of inactivation (kobs) for the three inhibitors as depicted in Fig 6A–6F.
Macrolides (0–100 μM/L) were preincubated at 37°C for 0–30 min, and the reaction was initiated by the addition of CYP3A-specific substrate for 30 min. (G—I) Apparent inactivation rate (kobs) was estimated graphically from the slope of the plot for the natural log enzyme activity remaining after preincubation against preincubation time and was corrected for any loss of activity in the absence of the inhibitor. kinact and Ki,app values were obtained from a double reciprocal plot of kobs against inhibitor concentration. Closed circles represent TC-HepG2 cells, and opened circles represent parental HepG2 cells. Each symbol represents the average of triplicate determinations.

[7] = test system: HepG2 cells
[8] = test system: TC-HepG2 cells
[9] = target: T1, CYP2D6; assay: cell-based; assay type: in vitro ADME; set-up: endogenous in cells; host or cells: primary human hepatocytes; conditions: primary human hepatocytes; mean ± S.D. of triplicate

T1 sequence (P10635 whole entry): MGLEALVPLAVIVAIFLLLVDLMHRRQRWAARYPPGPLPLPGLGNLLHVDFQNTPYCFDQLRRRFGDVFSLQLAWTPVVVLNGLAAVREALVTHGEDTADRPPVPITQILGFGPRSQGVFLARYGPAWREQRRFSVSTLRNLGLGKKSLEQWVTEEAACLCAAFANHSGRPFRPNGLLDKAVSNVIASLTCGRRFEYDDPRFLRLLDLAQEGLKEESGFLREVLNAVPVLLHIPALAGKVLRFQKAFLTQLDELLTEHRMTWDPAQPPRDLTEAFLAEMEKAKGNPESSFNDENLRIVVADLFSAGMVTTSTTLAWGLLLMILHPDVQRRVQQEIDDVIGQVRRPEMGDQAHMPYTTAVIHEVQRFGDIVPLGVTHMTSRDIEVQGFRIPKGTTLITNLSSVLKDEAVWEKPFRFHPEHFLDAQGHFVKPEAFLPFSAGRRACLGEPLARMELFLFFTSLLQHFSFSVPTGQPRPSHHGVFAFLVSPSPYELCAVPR
T2 sequence (P33261 whole entry): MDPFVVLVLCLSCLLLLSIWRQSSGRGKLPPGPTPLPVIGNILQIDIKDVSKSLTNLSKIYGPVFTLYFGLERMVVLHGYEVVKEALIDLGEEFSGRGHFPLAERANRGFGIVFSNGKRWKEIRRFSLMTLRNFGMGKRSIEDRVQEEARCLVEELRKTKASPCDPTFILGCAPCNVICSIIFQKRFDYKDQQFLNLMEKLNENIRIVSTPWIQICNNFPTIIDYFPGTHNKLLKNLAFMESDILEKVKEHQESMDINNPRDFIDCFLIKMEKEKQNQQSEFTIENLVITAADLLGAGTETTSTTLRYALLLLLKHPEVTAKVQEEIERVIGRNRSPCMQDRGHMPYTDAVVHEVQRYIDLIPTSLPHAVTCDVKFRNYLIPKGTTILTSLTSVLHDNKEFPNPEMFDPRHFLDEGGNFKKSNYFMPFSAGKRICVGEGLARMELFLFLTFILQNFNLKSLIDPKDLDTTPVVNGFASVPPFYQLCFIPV
Chain of CYP2C9 (P11712 whole entry): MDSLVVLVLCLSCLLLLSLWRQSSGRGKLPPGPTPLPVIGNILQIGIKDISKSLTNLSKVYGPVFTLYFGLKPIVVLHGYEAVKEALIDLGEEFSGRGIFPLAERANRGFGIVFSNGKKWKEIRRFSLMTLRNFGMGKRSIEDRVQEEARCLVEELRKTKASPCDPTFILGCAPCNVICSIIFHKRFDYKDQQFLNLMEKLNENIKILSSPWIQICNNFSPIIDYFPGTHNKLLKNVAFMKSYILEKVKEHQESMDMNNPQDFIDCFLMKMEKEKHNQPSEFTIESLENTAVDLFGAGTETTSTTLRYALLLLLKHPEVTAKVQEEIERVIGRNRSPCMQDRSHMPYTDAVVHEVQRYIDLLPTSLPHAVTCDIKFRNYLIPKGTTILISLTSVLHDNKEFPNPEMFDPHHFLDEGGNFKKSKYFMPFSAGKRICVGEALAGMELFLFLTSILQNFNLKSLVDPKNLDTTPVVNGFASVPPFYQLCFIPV

With `Fc1ccc([C@@H]2CCNC[C@H]2COc2ccc3c(c2)OCO3)cc1` [Paroxetine] the “inhibitory effect with 1 hour preincubation (TDI) compared with simultaneous addition of inhibitor and substrate (DI), CYP2D6” value [1] was “higher”.
For `O=C(O)COc1ccc(C(=O)c2cccs2)c(Cl)c1Cl` [Tienilic acid], the IC50 [2] was 5.7 ± 1.7 µM, the IC50 [3] was 0.55 ± 0.02 µM and the “inhibitory effect with 1 hour preincubation (TDI) compared with simultaneous addition of inhibitor and substrate (DI), CYP2C9” value [4] was “higher”.
With `CC[C@H]1OC(=O)[C@H](C)[C@@H](O[C@H]2C[C@@](C)(OC)[C@@H](O)[C@H](C)O2)[C@H](C)[C@@H](O[C@@H]2O[C@H](C)C[C@H](N(C)C)[C@H]2O)[C@](C)(O)C[C@@H](C)/C(=N\OCOCCOC)[C@H](C)[C@@H](O)[C@]1(C)O` [Roxithromycin] the “inhibitory effect with 1 hour preincubation (TDI) compared with simultaneous addition of inhibitor and substrate (DI), CYP3A4” value [5] was “higher”, the “suppression of the generation of metabolites of the luminescent CYP3A4 substrate” value [6] was “time- and concentration-dependent manner” and the KI (inactivation) ([6]; hepatocytes) was 13.1 ± 4.7 µM. It also gave a kinact ([6]; hepatocytes) of 0.000161 s⁻¹, a KI (inactivation) ([6]; human) of 4.6 ± 0.6 µM and a kinact ([6]; human) of 0.000431 s⁻¹.
With aflatoxin B1 the “toxicity in parental HepG2 cells lacking CYPs” value [7] was “neither compound was toxic” and the “IC50 in TC-HepG2 cells compared with HepG2 cells” value [8] was “lower”.
For `C#C[C@]1(O)CC[C@H]2[C@@H]3CCc4cc(O)ccc4[C@H]3CC[C@@]21C` [Ethinylestradiol], the “inhibitory effect with 1 hour preincubation (TDI) compared with simultaneous addition of inhibitor and substrate (DI), CYP3A4” value ([5]; TC-HepG2 cells, Fig 5) was “higher”.
For `CN(C/C=C/C#CC(C)(C)C)Cc1cccc2ccccc12` [Terbinafine], the IC50 [1] was 0.0021 ± 0.0002 µM and the IC50 [9] was 0.0099 ± 0.0002 µM.
In the case of `CC[C@H]1OC(=O)[C@H](C)[C@@H](O[C@H]2C[C@@](C)(OC)[C@@H](O)[C@H](C)O2)[C@H](C)[C@@H](O[C@@H]2O[C@H](C)C[C@H](N(C)C)[C@H]2O)[C@](C)(OC)C[C@@H](C)C(=O)[C@H](C)[C@@H](O)[C@]1(C)O` [Clarithromycin], the “inhibitory effect with 1 hour preincubation (TDI) compared with simultaneous addition of inhibitor and substrate (DI), CYP3A4” value ([5]; TC-HepG2 cells, Fig 5) is reported as “higher”, the “inhibitory effect on CYP3A4 metabolic activity” value ([5]; three TC-HepG2 clones (Fig 3C)) is reported as “concentration-dependent inhibitory effect” and the “suppression of the generation of metabolites of the luminescent CYP3A4 substrate” value ([6]; 0-100 μM added 10, 20 or 30 min before substrate (Fig 6)) is reported as “time- and concentration-dependent manner”. The KI (inactivation) ([6]; hepatocytes) was 16 ± 4.3 µM and the KI (inactivation) ([6]; human) was 3.76 ± 0.42 µM.
`COc1cc2c(c3oc4cccc(O)c4c(=O)c13)[C@@H]1C=CO[C@@H]1O2` [sterigmatocystin] was tested, and the “toxicity in parental HepG2 cells lacking CYPs” value [7] was “neither compound was toxic”, the “cell survival rate in TC-HepG2 cells compared with parental HepG2 cells” value [8] was “significantly lower” and the “survival of TC-HepG2 cells” value [8] was “concentration-dependent decrease”.
